Key:
Assay in all cases: biochemical
Assay type in all cases: binding
panel of 442 kinases [1] = target: T1, panel of 442 kinases (Homo sapiens, UniProt Q14289); conditions: kinase PYK2; for remaining activity at 1 µM: read-out: PYK2 (% of control at 1 µM)
T1 construct: purchased Ambit Biosciences (scanMAXX KINOMEscan)

panel of 442 kinases [2] = target: T2, panel of 442 kinases (Homo sapiens, UniProt O00238); conditions: BMPR1B; for remaining activity at 1 µM: read-out: % of control at 1 µM
T2 construct: purchased Ambit Biosciences (scanMAXX KINOMEscan)
T2 sequence (O00238 14-502): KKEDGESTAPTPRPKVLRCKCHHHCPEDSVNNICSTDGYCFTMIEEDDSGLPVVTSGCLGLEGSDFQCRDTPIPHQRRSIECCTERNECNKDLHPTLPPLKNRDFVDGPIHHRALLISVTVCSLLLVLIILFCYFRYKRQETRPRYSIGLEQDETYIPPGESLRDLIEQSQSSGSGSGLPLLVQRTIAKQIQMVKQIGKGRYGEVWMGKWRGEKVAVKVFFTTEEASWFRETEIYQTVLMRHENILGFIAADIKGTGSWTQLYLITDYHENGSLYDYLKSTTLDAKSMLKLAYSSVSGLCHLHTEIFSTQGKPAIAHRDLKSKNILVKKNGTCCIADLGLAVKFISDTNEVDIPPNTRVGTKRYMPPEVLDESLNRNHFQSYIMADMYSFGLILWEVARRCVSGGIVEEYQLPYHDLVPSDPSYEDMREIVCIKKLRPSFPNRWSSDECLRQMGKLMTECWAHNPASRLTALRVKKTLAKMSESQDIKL

panel of 442 kinases [3] = target: T3, panel of 442 kinases (Homo sapiens, UniProt Q9UKI8); conditions: kinase TLK1; for remaining activity at 1 µM: read-out: TLK1 (% of control at 1 µM)
T3 construct: purchased Ambit Biosciences (scanMAXX KINOMEscan)
T3 sequence (Q9UKI8 1-766): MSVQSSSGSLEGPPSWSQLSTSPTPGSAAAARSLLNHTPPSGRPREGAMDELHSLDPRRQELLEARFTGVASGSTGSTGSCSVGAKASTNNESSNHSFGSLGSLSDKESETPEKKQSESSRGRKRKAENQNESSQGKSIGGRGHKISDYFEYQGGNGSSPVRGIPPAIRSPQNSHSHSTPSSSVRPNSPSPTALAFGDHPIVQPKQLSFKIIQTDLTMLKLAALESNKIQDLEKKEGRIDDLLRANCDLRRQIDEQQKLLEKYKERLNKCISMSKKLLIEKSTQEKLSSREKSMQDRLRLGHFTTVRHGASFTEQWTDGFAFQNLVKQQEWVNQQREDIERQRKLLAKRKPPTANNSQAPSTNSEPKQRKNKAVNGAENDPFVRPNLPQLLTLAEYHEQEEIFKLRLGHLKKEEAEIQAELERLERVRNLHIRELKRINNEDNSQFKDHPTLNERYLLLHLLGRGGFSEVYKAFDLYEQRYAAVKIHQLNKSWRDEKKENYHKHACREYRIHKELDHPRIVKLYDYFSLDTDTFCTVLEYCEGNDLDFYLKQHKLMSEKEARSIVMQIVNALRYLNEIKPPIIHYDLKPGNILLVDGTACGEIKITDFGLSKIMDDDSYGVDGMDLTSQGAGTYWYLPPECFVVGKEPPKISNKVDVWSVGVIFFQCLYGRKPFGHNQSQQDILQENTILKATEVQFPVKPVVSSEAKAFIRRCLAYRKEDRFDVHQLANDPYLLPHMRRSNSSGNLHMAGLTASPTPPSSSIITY

panel of 442 kinases [4] = target: T4, panel of 442 kinases (Homo sapiens, UniProt Q16566); conditions: CAMK4; for remaining activity at 1 µM: read-out: % of control at 1 µM
T4 construct: purchased Ambit Biosciences (scanMAXX KINOMEscan)
T4 sequence (Q16566 1-473): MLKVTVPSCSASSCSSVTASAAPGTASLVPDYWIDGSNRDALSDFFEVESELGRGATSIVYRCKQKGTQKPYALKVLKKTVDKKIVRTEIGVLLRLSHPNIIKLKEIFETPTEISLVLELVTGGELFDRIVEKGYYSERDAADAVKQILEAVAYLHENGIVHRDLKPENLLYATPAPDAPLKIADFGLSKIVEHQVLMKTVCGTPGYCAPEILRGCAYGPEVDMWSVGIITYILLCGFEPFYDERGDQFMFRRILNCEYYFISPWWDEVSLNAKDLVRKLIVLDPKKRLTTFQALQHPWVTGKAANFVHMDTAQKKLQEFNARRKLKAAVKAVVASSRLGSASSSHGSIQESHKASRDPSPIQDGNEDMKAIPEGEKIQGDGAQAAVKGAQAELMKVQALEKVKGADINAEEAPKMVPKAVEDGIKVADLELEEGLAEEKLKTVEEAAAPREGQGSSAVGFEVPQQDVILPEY

panel of 442 kinases [5] = target: T5, panel of 442 kinases (Homo sapiens, UniProt O75914); conditions: kinase PAK3; for remaining activity at 1 µM: read-out: % of control at 1 µM
T5 construct: purchased Ambit Biosciences (scanMAXX KINOMEscan)
T5 sequence (O75914 whole entry): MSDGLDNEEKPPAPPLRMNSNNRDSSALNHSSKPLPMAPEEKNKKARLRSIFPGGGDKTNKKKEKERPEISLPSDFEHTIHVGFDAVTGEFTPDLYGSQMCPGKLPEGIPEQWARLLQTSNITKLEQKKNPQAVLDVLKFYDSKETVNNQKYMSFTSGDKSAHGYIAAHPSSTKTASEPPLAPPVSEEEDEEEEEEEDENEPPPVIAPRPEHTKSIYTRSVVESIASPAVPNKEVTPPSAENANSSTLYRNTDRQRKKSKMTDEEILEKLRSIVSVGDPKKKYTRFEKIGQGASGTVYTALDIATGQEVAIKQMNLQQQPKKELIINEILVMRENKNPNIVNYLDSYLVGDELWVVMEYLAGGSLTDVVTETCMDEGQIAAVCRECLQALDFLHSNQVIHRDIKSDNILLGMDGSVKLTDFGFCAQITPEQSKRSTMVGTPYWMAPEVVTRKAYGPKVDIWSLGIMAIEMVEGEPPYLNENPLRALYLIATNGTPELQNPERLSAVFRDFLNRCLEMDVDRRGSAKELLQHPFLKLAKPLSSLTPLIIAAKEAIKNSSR

panel of 442 kinases [6] = target: T6, panel of 442 kinases (Homo sapiens, UniProt P54762); conditions: EPHB1; for remaining activity at 1 µM: read-out: % of control at 1 µM
T6 construct: purchased Ambit Biosciences (scanMAXX KINOMEscan)
T6 sequence (P54762 18-984): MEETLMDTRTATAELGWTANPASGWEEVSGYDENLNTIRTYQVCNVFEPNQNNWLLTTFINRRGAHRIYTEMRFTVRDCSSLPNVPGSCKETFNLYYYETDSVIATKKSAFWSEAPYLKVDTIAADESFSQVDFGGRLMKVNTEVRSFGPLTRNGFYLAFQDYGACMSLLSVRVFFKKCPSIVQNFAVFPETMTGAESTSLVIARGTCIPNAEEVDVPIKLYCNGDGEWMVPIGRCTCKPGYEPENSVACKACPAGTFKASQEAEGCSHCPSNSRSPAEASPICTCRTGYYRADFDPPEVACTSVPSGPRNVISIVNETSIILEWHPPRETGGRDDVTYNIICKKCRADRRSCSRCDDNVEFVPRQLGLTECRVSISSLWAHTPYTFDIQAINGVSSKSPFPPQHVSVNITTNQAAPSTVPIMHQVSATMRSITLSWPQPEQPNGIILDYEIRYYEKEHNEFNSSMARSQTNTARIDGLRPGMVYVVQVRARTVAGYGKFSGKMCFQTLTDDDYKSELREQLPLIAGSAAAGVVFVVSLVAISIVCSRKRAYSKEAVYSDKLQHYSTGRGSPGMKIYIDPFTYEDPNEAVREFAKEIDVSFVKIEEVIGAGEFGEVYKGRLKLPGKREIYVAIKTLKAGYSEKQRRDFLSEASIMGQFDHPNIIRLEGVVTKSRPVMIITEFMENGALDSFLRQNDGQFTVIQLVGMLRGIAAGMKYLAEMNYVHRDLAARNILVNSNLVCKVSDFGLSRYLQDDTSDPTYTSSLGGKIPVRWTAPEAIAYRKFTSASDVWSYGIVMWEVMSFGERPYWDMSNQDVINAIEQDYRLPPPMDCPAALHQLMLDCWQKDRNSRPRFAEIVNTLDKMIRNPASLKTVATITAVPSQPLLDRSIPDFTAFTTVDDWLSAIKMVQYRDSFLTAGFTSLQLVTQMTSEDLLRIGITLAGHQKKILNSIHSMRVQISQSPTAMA

panel of 442 kinases [7] = target: T7, panel of 442 kinases (Homo sapiens, UniProt P53355); conditions: DAPK1; for remaining activity at 1 µM: read-out: % of control at 1 µM
T7 construct: purchased Ambit Biosciences (scanMAXX KINOMEscan)
T7 sequence (P53355 whole entry): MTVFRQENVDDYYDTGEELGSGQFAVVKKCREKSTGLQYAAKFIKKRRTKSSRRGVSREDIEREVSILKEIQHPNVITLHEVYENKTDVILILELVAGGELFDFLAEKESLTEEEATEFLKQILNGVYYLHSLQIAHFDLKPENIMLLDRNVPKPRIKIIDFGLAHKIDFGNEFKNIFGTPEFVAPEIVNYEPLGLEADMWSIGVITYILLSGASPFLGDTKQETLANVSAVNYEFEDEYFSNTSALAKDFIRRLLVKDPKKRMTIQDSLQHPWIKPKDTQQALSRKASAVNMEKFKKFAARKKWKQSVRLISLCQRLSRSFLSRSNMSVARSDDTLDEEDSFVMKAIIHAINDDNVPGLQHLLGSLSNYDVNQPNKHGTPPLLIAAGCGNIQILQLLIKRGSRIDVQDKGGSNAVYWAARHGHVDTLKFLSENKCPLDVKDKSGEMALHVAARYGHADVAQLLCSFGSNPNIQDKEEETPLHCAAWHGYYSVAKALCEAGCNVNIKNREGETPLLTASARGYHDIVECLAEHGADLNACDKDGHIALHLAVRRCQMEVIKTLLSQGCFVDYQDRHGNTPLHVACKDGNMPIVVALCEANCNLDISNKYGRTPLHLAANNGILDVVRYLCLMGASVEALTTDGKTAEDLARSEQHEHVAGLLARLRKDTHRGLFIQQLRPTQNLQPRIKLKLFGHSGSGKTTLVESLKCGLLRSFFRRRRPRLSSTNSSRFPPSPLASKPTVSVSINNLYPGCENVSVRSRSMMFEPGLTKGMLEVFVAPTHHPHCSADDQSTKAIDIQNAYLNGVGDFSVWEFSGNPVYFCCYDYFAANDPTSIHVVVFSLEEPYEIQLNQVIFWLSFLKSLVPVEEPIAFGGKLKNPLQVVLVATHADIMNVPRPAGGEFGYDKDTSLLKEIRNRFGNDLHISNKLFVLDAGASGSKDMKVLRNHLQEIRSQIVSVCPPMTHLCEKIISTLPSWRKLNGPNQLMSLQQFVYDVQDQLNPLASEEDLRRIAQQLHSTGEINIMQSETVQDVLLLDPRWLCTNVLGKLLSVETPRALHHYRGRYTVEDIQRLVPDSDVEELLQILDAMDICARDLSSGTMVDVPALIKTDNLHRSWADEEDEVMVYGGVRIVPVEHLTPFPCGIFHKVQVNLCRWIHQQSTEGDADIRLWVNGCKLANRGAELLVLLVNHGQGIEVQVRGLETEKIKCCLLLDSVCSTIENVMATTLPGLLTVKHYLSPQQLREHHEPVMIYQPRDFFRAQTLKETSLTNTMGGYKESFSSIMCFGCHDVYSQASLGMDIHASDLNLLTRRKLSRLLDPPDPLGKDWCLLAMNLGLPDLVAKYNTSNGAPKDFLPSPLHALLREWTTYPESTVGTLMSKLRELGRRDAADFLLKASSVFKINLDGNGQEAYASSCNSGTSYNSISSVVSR

[8] = 10 µM, read-out: % of control at 10 µM

T1 sequence (Q14289 whole entry): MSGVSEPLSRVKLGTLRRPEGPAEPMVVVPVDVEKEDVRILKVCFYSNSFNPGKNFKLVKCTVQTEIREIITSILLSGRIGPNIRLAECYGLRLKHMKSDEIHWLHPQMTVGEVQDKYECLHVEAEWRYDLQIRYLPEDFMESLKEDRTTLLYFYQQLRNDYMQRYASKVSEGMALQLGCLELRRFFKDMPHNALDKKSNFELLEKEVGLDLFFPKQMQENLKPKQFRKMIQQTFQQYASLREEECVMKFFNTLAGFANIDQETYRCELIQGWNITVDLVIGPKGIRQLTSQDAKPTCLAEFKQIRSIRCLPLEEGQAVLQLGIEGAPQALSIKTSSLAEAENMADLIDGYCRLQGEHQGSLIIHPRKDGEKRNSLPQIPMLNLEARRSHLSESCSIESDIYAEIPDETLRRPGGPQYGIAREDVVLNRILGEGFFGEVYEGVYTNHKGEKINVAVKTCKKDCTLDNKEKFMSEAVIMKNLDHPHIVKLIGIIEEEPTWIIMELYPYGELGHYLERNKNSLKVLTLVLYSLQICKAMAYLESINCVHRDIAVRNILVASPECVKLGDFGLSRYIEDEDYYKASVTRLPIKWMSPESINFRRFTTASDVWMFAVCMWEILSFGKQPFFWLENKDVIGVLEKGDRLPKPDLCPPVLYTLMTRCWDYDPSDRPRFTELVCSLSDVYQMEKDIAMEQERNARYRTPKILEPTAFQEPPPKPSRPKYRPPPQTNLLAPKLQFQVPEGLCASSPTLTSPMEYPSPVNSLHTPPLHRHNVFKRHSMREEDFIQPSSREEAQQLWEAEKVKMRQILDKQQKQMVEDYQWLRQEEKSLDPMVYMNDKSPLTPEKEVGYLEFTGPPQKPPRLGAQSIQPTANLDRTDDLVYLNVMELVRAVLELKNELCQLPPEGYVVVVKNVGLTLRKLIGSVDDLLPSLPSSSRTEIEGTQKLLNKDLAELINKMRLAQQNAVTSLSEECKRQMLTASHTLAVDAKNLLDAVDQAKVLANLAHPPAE

Nc1cc(C(F)(F)F)c(-c2cc(N3CCOCC3)nc(N3CCOCC3)n2)cn1 [Buparlisib]
remaining activity at 1 µM (panel of 442 kinases [1]): 100%
remaining activity at 10 µM (panel of 442 kinases [1]; 10 µM, read-out: PYK2 (% of control at 10 µM)): 100%
remaining activity at 1 µM (panel of 442 kinases [2]): 100%
remaining activity at 10 µM (panel of 442 kinases [2]; [8]): 100%
remaining activity at 1 µM (panel of 442 kinases [3]): 100%
remaining activity at 10 µM (panel of 442 kinases [3]; 10 µM, read-out: TLK1 (% of control at 10 µM)): 82%
remaining activity at 1 µM (panel of 442 kinases [4]): 89%
remaining activity at 10 µM (panel of 442 kinases [4]; [8]): 100%
remaining activity at 1 µM (panel of 442 kinases [5]): 89%
remaining activity at 10 µM (panel of 442 kinases [5]; [8]): 100%
remaining activity at 1 µM (panel of 442 kinases [6]): 88%
remaining activity at 10 µM (panel of 442 kinases [6]; [8]): 100%
remaining activity at 1 µM (panel of 442 kinases [7]): 93%
remaining activity at 10 µM (panel of 442 kinases [7]; [8]): 77%

Cn1c(=O)n(-c2ccc(C(C)(C)C#N)cc2)c2c3cc(-c4cnc5ccccc5c4)ccc3ncc21 [Dactolisib, 2-methyl-2-[4-(3-methyl-2-oxo-8-quinolin-3-yl-2,3-dihydroimidazo[4,5-c]quinolin-1-yl)-phenyl] propionitrile]
remaining activity at 1 µM (panel of 442 kinases [1]): 86%
remaining activity at 1 µM (panel of 442 kinases [2]): 91%
remaining activity at 1 µM (panel of 442 kinases [3]): 75%
remaining activity at 1 µM (panel of 442 kinases [5]): 86%
remaining activity at 1 µM (panel of 442 kinases [6]): 100%
remaining activity at 1 µM (panel of 442 kinases [7]): 76%

COc1ncc(-c2ccc3nccc(-c4ccnnc4)c3c2)cc1NS(=O)(=O)c1ccc(F)cc1F [Omipalisib]
remaining activity at 1 µM (panel of 442 kinases [1]): 100%
remaining activity at 1 µM (panel of 442 kinases [2]): 87%
remaining activity at 1 µM (panel of 442 kinases [3]): 95%
remaining activity at 1 µM (panel of 442 kinases [4]): 100%
remaining activity at 1 µM (panel of 442 kinases [5]): 100%
remaining activity at 1 µM (panel of 442 kinases [6]): 100%
remaining activity at 1 µM (panel of 442 kinases [7]): 93%

FC(F)c1nc2ccccc2n1-c1nc(N2CCOCC2)nc(N2CCOCC2)n1 [ZSTK474, 2-(difluoromethyl)-1-[4,6-di(4-morpholinyl)-1,3,5-triazin-2-yl]-1H-benzimidazole]
remaining activity at 1 µM (panel of 442 kinases [1]): 100%
remaining activity at 1 µM (panel of 442 kinases [2]): 94%
remaining activity at 1 µM (panel of 442 kinases [3]): 100%
remaining activity at 1 µM (panel of 442 kinases [4]): 92%
remaining activity at 1 µM (panel of 442 kinases [5]): 73%
remaining activity at 1 µM (panel of 442 kinases [6]): 99%
remaining activity at 1 µM (panel of 442 kinases [7]): 86%

Reference: PMC5564600 (Oncotarget, 2017)
